# Patent US10633407B2, “14-membered ketolides and methods of their preparation and use” (President and Fellows of Harvard College, priority 2014, dated 2020)
# Where two headings read alike, the source gives them in different places.
# Tests used:
# Type in all cases: cell-based
# E. faecalis ATCC 29212 = assay: CLSI broth dilution MIC determination
# [1] = test system: strains of B. subtilis, E. coli, S. aureus, S. pneumoniae, and H. influenzae, including several multidrug-resistant strains; assay: CLSI broth dilution MIC determination, whole panel of strains; settings: from MIC data, Tables B1-B13
# From the text: (§1) MIC data was collected for the novel macrolides that this platform has produced against over 21 unique strains of B. subtilis, E. coli, S. aureus, S. pneumoniae, and H. influenzae, including several multidrug-resistant strains, with a special focus on macrolide resistant mechanisms (vide supra). Azithromycin (Azithro) and Solithromycin (Solithro) were included as a control macrolides in many cases. CLSI standard procedures for broth dilution MIC determination were used. […] These genotypes can be constitutive or inducible.
# K. pneumoniae KPC-2 = assay: CLSI broth dilution MIC determination
# [2] = test system: A. baumannii imipenem-resistant; assay: CLSI broth dilution MIC determination
# P. aeruginosa ATCC 27853 = assay: CLSI broth dilution MIC determination
# [3] = test system: E. faecalis Vancomycin-resistant; assay: CLSI broth dilution MIC determination
# E. coli TEM-1 = assay: CLSI broth dilution MIC determination
# Outline: (§2)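 CLSI broth-dilution MIC. Controls: azithromycin, solithromycin (many cases). Macrolide-resistance genotypes constitutive or inducible.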
# S. aureus erm A genotype = assay: CLSI broth dilution MIC determination
# Outline: as §2
# [4] = test system: S. pneumoniae erm B + tet(M,O) genotype; assay: CLSI broth dilution MIC determination; settings: Streptococcus pneumoniae
# Outline: as §2
# S. aureus MRSA: USA100 = assay: CLSI broth dilution MIC determination
# Outline: as §2
# E. coli ATCC 25922 = assay: CLSI broth dilution MIC determination
# Outline: as §2
# E. coli NDM-1 = assay: CLSI broth dilution MIC determination
# Outline: as §2
# S. aureus MRSA: USA300 = assay: CLSI broth dilution MIC determination
# Outline: as §2
# S. pneumoniae ATCC 49619 = assay: CLSI broth dilution MIC determination
# Outline: as §2
# [5] = test system: S. pneumoniae erm B + mef A genotype; assay: CLSI broth dilution MIC determination; settings: Streptococcus pneumoniae
# Outline: as §2
# E. coli CTX-M-14 = assay: CLSI broth dilution MIC determination
# Outline: as §2
# K. pneumoniae TEM-10 = assay: CLSI broth dilution MIC determination
# H. influenzae ATCC49247 = assay: CLSI broth dilution MIC determination
# Outline: as §2
# S. aureus ATCC 29213 = assay: CLSI broth dilution MIC determination
# Outline: as §2
# S. aureus USA600, GISA = assay: CLSI broth dilution MIC determination
# Outline: as §2
# [6] = test system: S. pneumoniae mef A genotype (second strain so labelled); assay: CLSI broth dilution MIC determination
# Outline: as §2
# [7] = test system: A. baumannii chromosomal class C; assay: CLSI broth dilution MIC determination
# [8] = test system: S. pyogenes Macrolide-resistant; assay: CLSI broth dilution MIC determination
# A. baumannii IMP-4 = assay: CLSI broth dilution MIC determination
# K. pneumoniae ATCC 10031 = assay: CLSI broth dilution MIC determination
# K. pneumoniae SHV-12 = assay: CLSI broth dilution MIC determination
# S. pyogenes ATCC 19615 = assay: CLSI broth dilution MIC determination
# A. baumannii ATCC 19606 = assay: CLSI broth dilution MIC determination
# [9] = test system: H. influenzae Erythro >4, Azithro 1; assay: CLSI broth dilution MIC determination
# From the text: as §1, with “Azithromycin (Azithro) and Solithromycin (Solithro) were included as a control macrolides in many cases.” left out
# [10] = test system: P. aeruginosa HPA101-1477; assay: CLSI broth dilution MIC determination
# [11] = Acinetobacter baumannii, read-out: MIC
# [12] = Haemophilus influenzae, read-out: MIC
structure (smiles),measurement,setting,value
CC[C@H]1OC(=O)[C@@](C)(F)C(=O)[C@H](C)[C@@H](O[C@@H]2OC(C)CC(N(C)C)C2O)[C@](C)(OC)C[C@@H](C)C(=O)[C@H](C)[C@H]2N(CC#CCn3cc(-c4cccc(N)c4)nn3)C(=O)O[C@]12C (stereo partly drawn) [FSM-100426],MIC,"E. faecalis ATCC 29212; E. faecalis ATCC 29212, Gram-positive",< 0.0312 µg/mL
same,MIC,"E. faecalis ATCC 29212; Enterococcus faecalis, ATCC29212, E. faecalis ATCC 29212 (MP-24), read-out: MIC",< 0.0312 µg/mL
same,potency compared with solithromycin,[1],more potent
same,MIC,K. pneumoniae KPC-2; Gram-negative,> 32 µg/mL
same,MIC,"K. pneumoniae KPC-2; Klebsiella pneumoniae, KPC2, read-out: MIC",> 32 µg/mL
same,MIC,[2]; [11],8 µg/mL
same,MIC,[2]; Gram-negative,8 µg/mL
same,MIC,"P. aeruginosa ATCC 27853; P. aeruginosa ATCC 27853, Gram-negative",> 32 µg/mL
same,MIC,"P. aeruginosa ATCC 27853; Pseudomonas aeruginosa, ATCC27853, P. aeruginosa ATCC 27853 (MP-3), read-out: MIC",> 32 µg/mL
same,MIC,"[3]; E. faecalis Vancomycin-resistant, Gram-positive",8 µg/mL
same,MIC,"[3]; Enterococcus faecalis, E. faecalis Vancomycin-resistant (UNT-039), read-out: MIC",8 µg/mL
same,MIC,"E. coli TEM-1; E. coli TEM-1, Gram-negative",> 32 µg/mL
same,MIC,"E. coli TEM-1; Escherichia coli, TEM1",> 32 µg/mL
same,MIC,"S. aureus erm A genotype; S. aureus erm A genotype, Gram-positive",> 32 µg/mL
same,MIC,"S. aureus erm A genotype; Staphylococcus aureus, S. aureus erm A genotype (MP-620 UNT-146), read-out: MIC",> 32 µg/mL
same,MIC,[4],< 0.0312 µg/mL
same,MIC,"S. aureus MRSA: USA100; S. aureus MRSA: USA100, Gram-positive",> 32 µg/mL
same,MIC,"S. aureus MRSA: USA100; Staphylococcus aureus, S. aureus MRSA: USA100 (MP-618 UNT-096), read-out: MIC",> 32 µg/mL
same,MIC,"E. coli ATCC 25922; E. coli ATCC 25922, Gram-negative",32 µg/mL
same,MIC,"E. coli ATCC 25922; Escherichia coli, ATCC25922, E. coli ATCC 25922 (MP-4), read-out: MIC",32 µg/mL
same,MIC,"E. coli NDM-1; Escherichia coli, NDM1, read-out: MIC",> 32 µg/mL
same,MIC,E. coli NDM-1; Gram-negative,> 32 µg/mL
same,MIC,"S. aureus MRSA: USA300; S. aureus MRSA: USA300, Gram-positive",0.5 µg/mL
same,MIC,"S. aureus MRSA: USA300; Staphylococcus aureus, S. aureus MRSA: USA300 (MP-549, msr(a)), read-out: MIC",0.5 µg/mL
same,MIC,"S. pneumoniae ATCC 49619; S. pneumoniae ATCC 49619, Gram-positive",< 0.0312 µg/mL
same,MIC,"S. pneumoniae ATCC 49619; Streptococcus pneumoniae, ATCC49619, S. pneumoniae ATCC 49619 (MP-21), read-out: MIC",< 0.0312 µg/mL
same,MIC,[5],< 0.0312 µg/mL
same,MIC,"E. coli CTX-M-14; Escherichia coli, CTXM14, read-out: MIC",> 32 µg/mL
same,MIC,E. coli CTX-M-14; Gram-negative,> 32 µg/mL
same,MIC,K. pneumoniae TEM-10; Gram-negative,> 32 µg/mL
same,MIC,"K. pneumoniae TEM-10; Klebsiella pneumoniae, TEM10, read-out: MIC",> 32 µg/mL
same,MIC,H. influenzae ATCC49247; Gram-negative,4 µg/mL
same,MIC,H. influenzae ATCC49247; [12],4 µg/mL
same,MIC,"S. aureus ATCC 29213; S. aureus ATCC 29213, Gram-positive",0.0625 µg/mL
same,MIC,"S. aureus ATCC 29213; Staphylococcus aureus, ATCC29213, S. aureus ATCC 29213 (MP-12), read-out: MIC",0.0625 µg/mL
same,MIC,"S. aureus USA600, GISA; S. aureus USA600, GISA, Gram-positive",32 µg/mL
same,MIC,"S. aureus USA600, GISA; Staphylococcus aureus, S. aureus USA600, GISA (MP-619 UNT-120), read-out: MIC",32 µg/mL
same,MIC,[6]; Gram-positive,< 0.0312 µg/mL
same,MIC,"[6]; Streptococcus pneumoniae, second strain (MP-627 UNT-039), read-out: MIC",< 0.0312 µg/mL
same,MIC,[7]; [11],32 µg/mL
same,MIC,[7]; Gram-negative,32 µg/mL
same,MIC,"[8]; S. pyogenes Macrolide-resistant, Gram-positive",< 0.0312 µg/mL
same,MIC,"[8]; Streptococcus pyogenes, S. pyogenes Macrolide-resistant (MP-625 UNT-014), read-out: MIC",< 0.0312 µg/mL
same,MIC,"A. baumannii IMP-4; Acinetobacter baumannii, IMP4, read-out: MIC",> 32 µg/mL
same,MIC,A. baumannii IMP-4; Gram-negative,> 32 µg/mL
same,MIC,"K. pneumoniae ATCC 10031; K. pneumoniae ATCC 10031, Gram-negative",8 µg/mL
same,MIC,"K. pneumoniae ATCC 10031; Klebsiella pneumoniae, ATCC10031, K. pneumoniae ATCC 10031 (MP-14), read-out: MIC",8 µg/mL
same,MIC,K. pneumoniae SHV-12; Gram-negative,> 32 µg/mL
same,MIC,"K. pneumoniae SHV-12; Klebsiella pneumoniae, SHV12, read-out: MIC",> 32 µg/mL
same,MIC,"S. pyogenes ATCC 19615; S. pyogenes ATCC 19615, Gram-positive",< 0.0312 µg/mL
same,MIC,"S. pyogenes ATCC 19615; Streptococcus pyogenes, ATCC19615, S. pyogenes ATCC 19615 (MP-19), read-out: MIC",< 0.0312 µg/mL
same,MIC,"A. baumannii ATCC 19606; A. baumannii ATCC 19606, Gram-negative",16 µg/mL
same,MIC,"A. baumannii ATCC 19606; Acinetobacter baumannii, ATCC19606, A. baumannii ATCC 19606 (MP-15), read-out: MIC",16 µg/mL
same,MIC,"[9]; H. influenzae Erythro >4, Azithro 1, Gram-negative",4 µg/mL
same,MIC,[9]; [12],4 µg/mL
same,MIC,[10]; Gram-negative,> 32 µg/mL
same,MIC,"[10]; Pseudomonas aeruginosa, HPA1011477, read-out: MIC",> 32 µg/mL
